Test results from patent publication US10722444B2, “Stable hydrogel compositions including additives” (Allergan Industrie, SAS, priority 2014, dated 2020).

Legend:
[1] = Autoclaving stability of HA-based gel with additive (pH, extrusion force, rheology, appearance); format: physicochemical; conditions: for ΔpH / ΔTan δ (1 Hz): gel with additive minus gel without
Description: Stability of a hydrogel composition disclosed herein can be determined by subjecting a hydrogel composition to a heat treatment, such as, e.g., steam sterilization at normal pressure or under pressure (e.g., autoclaving). Preferably the heat treatment is carried out at a temperature of at least about 100° C. for between about one minute and about 15 minutes. Substantial stability of a hydrogel composition disclosed herein can be evaluated 1) by determining the change in the extrusion force (ΔF) of a hydrogel composition disclosed herein after sterilization, where the change in extrusion force less 2N is indicative of a substantially stable hydrogel composition as measured by (the extrusion force of a hydrogel composition with the specified additives) minus (the extrusion force of the a hydrogel composition without the added additives); and/or 2) by determining the change in rheological properties of a hydrogel composition disclosed herein after sterilization, where the change in tan δ 1 Hz of less than 0.1 is indicative of a substantially stable hydrogel composition as measured by Δ Tan δ 1 Hz=(tan δ 1 Hz of gel formulation with additives) minus (tan δ 1 Hz of gel formulation without additives). As such, a substantially stable hydrogel composition disclosed herein retains one or more of the following characteristics after sterilization: homogeneousness, extrusion force, cohesiveness, hyaluronan concentration, agent(s) concentration, osmolarity, pH, or other rheological characteristics such as tan δ.
(§1) Reminder for stability assessment with extrusion force: ΔF (F gel with additive −F gel without additive)<2N
Reminder for stability assessment with rheology: ΔTan δ (Tan δ 1 Hz gel with additive −Tan δ 1 Hz gel without additive)<0.1
Caffeic acid, at a concentration of 0.6%,(w/w), was incorporated into a HA-based gel matrix at 24 mg/g containing 5% of uncrosslinked HA. The gel formulated was autoclaved.
Inoveol® CAFA (supplied by Libragen), (INCI name: Aqua (and) Caffeyl Glucoside), a derivative of caffeic acid, at a concentration of 0.5% (w/w) of commercial solution, was incorporated into a HA-based gel matrix containing a viscoelastic portion. The gel formulated was autoclaved.
The gel formulated was autoclaved.

[2] = Long term stability / accelerated aging at 45° C. of HA-based gel with additive; format: physicochemical; conditions: for ΔpH / ΔTan δ (1 Hz): 0.6% (w/w) caffeic acid gel of Example 1 vs HA-based gel matrix without additives
Description: Long term stability of a hydrogel composition disclosed herein can be determined by subjecting a hydrogel composition to a heat treatment, such as, e.g., storage in an about 45° C. environment for about 60 days. Long term stability of a hydrogel composition disclosed herein can be evaluated 1) by assessing the clarity and color of a hydrogel composition after the 45° C. heat treatment, with a clear and uncolored hydrogel composition being indicative of a substantially stable hydrogel composition; 2) by determining the change in the extrusion force (ΔF) of a hydrogel composition disclosed herein after the 45° C. heat treatment, where the change in extrusion force less 2N is indicative of a substantially stable hydrogel composition as measured by (the extrusion force of a hydrogel composition with the specified additives before and after the 45° C. heat treatment) minus (the extrusion force of the a hydrogel composition without the specified additives before and after the 45° C. heat treatment); and 3) by determining the change in rheological properties of a hydrogel composition disclosed herein after sterilization, where the change in tan δ 1 Hz of less than 0.1 is indicative of a substantially stable hydrogel composition as measured by Δ Tan δ 1 Hz=(tan δ 1 Hz of gel formulation with the specified additives before and after the 45° C. heat treatment) minus (tan δ 1 Hz of gel formulation without the specified additives before and after the 45° C. heat treatment). As such, a long term stability of a hydrogel composition disclosed herein is evaluated by retention of one or more of the following characteristics after the 45° C. heat treatment: clarity (transparency and translucency), homogeneousness, and cohesiveness.
as §1
Reminder for stability assessment with rheology: ΔTan δ (Tan δ 1 Hz gel with additive −Tan δ 1 Hz gel without additive)<0.1 […]
The formulation prepared in Example 3 was subjected to accelerated aging or accelerated degradation in order to test the stability of the gel. […]

[3] = after autoclaving, 0.6% (w/w) caffeic acid in HA-based gel matrix at 24 mg/g containing 5% uncrosslinked HA
[4] = before autoclaving, 0.6% (w/w) caffeic acid in HA-based gel matrix at 24 mg/g containing 5% uncrosslinked HA
[5] = after 30 days at 45° C., 0.6% (w/w) caffeic acid gel of Example 1

In the case of O=C(O)/C=C/c1ccc(O)c(O)c1 [Caffeic acid], the “appearance of the gel compared with before autoclaving” value [1, 3] is reported as “similar”, the ΔpH [1, 3] is reported as 0.55 and the “ΔTan δ (1 Hz)” value [1, 3] is reported as 0.02. For the same compound, the extrusion analysis finding ([1]; autoclaved gel with 0.6% (w/w) caffeic acid) was “beginning of degradation of the uncrosslinked hyaluronic acid”, the “appearance of the gel” value [1, 4] was “clear and brown” and the ΔpH [1, 4] was 0.18. For the same compound, the “ΔTan δ (1 Hz)” value [1, 4] was −0.003, the ΔpH ([2]; 10 days at 45° C.) was 1.05 and the “ΔTan δ (1 Hz)” value ([2]; 10 days at 45° C.) was 0.0560. For the same compound, the ΔpH ([2]; 20 days at 45° C.) was 0.90, the “ΔTan δ (1 Hz)” value ([2]; 20 days at 45° C.) was 0.077 and the ΔpH ([2]; 30 days at 45° C.) was 1.06. For the same compound, the “ΔTan δ (1 Hz)” value ([2]; 30 days at 45° C.) was 0.144, the “colour of the gel” value [2, 5] was “dark brown” and the “physical analysis of the gel, finding” value [2, 5] was “degradation of the formulation”.
